Test results as given in ChEMBL document CHEMBL1201862, “PubChem BioAssay data set” (2004).
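Cells were grown in 96-well plates and exposed to each compound for 48 hours at five concentrations; endpoints were interpolated linearly between bracketing concentrations, or set to the highest concentration if not reached. GI50 is the concentration that inhibits growth by half.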 Activity calls are given as the source filed them. Rule as the data show it: active = GI50 up to about 1.1 µM and inactive = higher.

Tests used:
Assay in all cases: NCI tumour cell line growth inhibition, 48 h
OVCAR-4 = tested on: OVCAR-4
IGROV-1 = tested on: IGROV-1
SNB-78 = tested on: SNB-78
DLD-1 = tested on: DLD-1
SK-MEL-28 = tested on: SK-MEL-28
TK-10 = tested on: TK-10
HOP-92 = tested on: HOP-92
OVCAR-8 = tested on: OVCAR-8
OVCAR-5 = tested on: OVCAR-5
U-251 = tested on: U-251
KM-20L2 = tested on: KM-20L2
NCI-H23 = tested on: NCI-H23
RXF 393 = tested on: RXF 393
A498 = tested on: A498
EKVX = tested on: EKVX
UACC-62 = tested on: UACC-62
M14 = tested on: M14
COLO 205 = tested on: COLO 205
HOP-62 = tested on: HOP-62
HT-29 = tested on: HT-29
SF-268 = tested on: SF-268
NCI-H522 = tested on: NCI-H522
SF-539 = tested on: SF-539
CCRF-CEM = tested on: CCRF-CEM
HCC 2998 = tested on: HCC 2998
SN12C = tested on: SN12C
NCI-H226 = tested on: NCI-H226
RXF 631 = tested on: RXF 631
MOLT-4 = tested on: MOLT-4
SK-MEL-5 = tested on: SK-MEL-5
M19-MEL = tested on: M19-MEL
786-0 = tested on: 786-0
NCI-H460 = tested on: NCI-H460
SW-620 = tested on: SW-620
SK-OV-3 = tested on: SK-OV-3
XF498 = tested on: XF498
LOX IMVI = tested on: LOX IMVI
SNB-75 = tested on: SNB-75
DMS-114 = tested on: DMS-114
DMS-273 = tested on: DMS-273
RPMI-8226 = tested on: RPMI-8226
HCT-15 = tested on: HCT-15
HCT-116 = tested on: HCT-116
CAKI-1 = tested on: CAKI-1
LXFL 529 = tested on: LXFL 529
OVCAR-3 = tested on: OVCAR-3
KM12 = tested on: KM12
UACC-257 = tested on: UACC-257
ACHN = tested on: ACHN
SK-MEL-2 = tested on: SK-MEL-2
UO-31 = tested on: UO-31
K562 = tested on: K562
SF-295 = tested on: SF-295
Malme-3M = tested on: Malme-3M
SNB-19 = tested on: SNB-19
A549 = tested on: A549
HL-60 = tested on: HL-60
SR = tested on: SR

Measured: GI50

CCCNCCCCC(NC(C)=O)C(=O)NCc1ccccc1 (stereo unspecified)
inactive: OVCAR-4 > 100 µM | IGROV-1 > 100 µM | SNB-78 > 100 µM | DLD-1 > 100 µM | SK-MEL-28 > 100 µM | TK-10 > 100 µM | HOP-92 > 100 µM | OVCAR-8 > 100 µM | OVCAR-5 > 100 µM | U-251 > 100 µM | KM-20L2 > 100 µM | NCI-H23 > 100 µM | RXF 393 > 100 µM | A498 > 100 µM | EKVX > 100 µM | UACC-62 > 100 µM | M14 > 100 µM | COLO 205 > 100 µM | HOP-62 > 100 µM | HT-29 > 100 µM | SF-268 > 100 µM | NCI-H522 > 100 µM | SF-539 > 100 µM | CCRF-CEM > 100 µM | HCC 2998 > 100 µM | SN12C > 100 µM | NCI-H226 > 100 µM | RXF 631 > 100 µM | MOLT-4 > 100 µM | SK-MEL-5 > 100 µM | M19-MEL > 100 µM | 786-0 > 100 µM | NCI-H460 > 100 µM | SW-620 > 100 µM | SK-OV-3 > 100 µM | XF498 > 100 µM | LOX IMVI > 100 µM | SNB-75 25.2 µM | DMS-114 > 100 µM | DMS-273 > 100 µM | RPMI-8226 > 100 µM | HCT-116 > 100 µM | CAKI-1 > 100 µM | LXFL 529 > 100 µM | OVCAR-3 > 100 µM | KM12 > 100 µM | UACC-257 > 100 µM | ACHN > 100 µM | SK-MEL-2 > 100 µM | UO-31 > 100 µM | K562 > 100 µM | SF-295 > 100 µM | Malme-3M > 100 µM | SNB-19 > 100 µM | A549 > 100 µM
> 100 µM: HCT-15

COC(=O)C(Cc1ccc2c(c1)OCO2)(NC(=O)c1ccccc1)P(=O)(OC)OC (stereo unspecified)
inactive: OVCAR-4 > 100 µM | IGROV-1 > 100 µM | SNB-78 > 100 µM | DLD-1 > 100 µM | SK-MEL-28 > 100 µM | TK-10 > 100 µM | HOP-92 > 100 µM | OVCAR-8 > 100 µM | OVCAR-5 > 100 µM | U-251 > 100 µM | KM-20L2 > 100 µM | NCI-H23 > 100 µM | HL-60 > 100 µM | RXF 393 > 100 µM | A498 > 100 µM | EKVX > 100 µM | UACC-62 > 100 µM | M14 > 100 µM | COLO 205 > 100 µM | HOP-62 > 100 µM | HT-29 > 100 µM | SF-268 > 100 µM | NCI-H522 > 100 µM | SF-539 > 100 µM | CCRF-CEM > 100 µM | HCC 2998 > 100 µM | SN12C > 100 µM | NCI-H226 > 100 µM | RXF 631 > 100 µM | MOLT-4 > 100 µM | SK-MEL-5 > 100 µM | M19-MEL > 100 µM | NCI-H460 > 100 µM | SW-620 > 100 µM | SK-OV-3 > 100 µM | XF498 > 100 µM | LOX IMVI > 100 µM | SNB-75 > 100 µM | DMS-114 > 100 µM | DMS-273 > 100 µM | RPMI-8226 > 100 µM | HCT-116 > 100 µM | CAKI-1 > 100 µM | LXFL 529 > 100 µM | KM12 > 100 µM | UACC-257 > 100 µM | ACHN > 100 µM | SK-MEL-2 63.5 µM | UO-31 > 100 µM | K562 > 100 µM | SF-295 > 100 µM | SR > 100 µM | SNB-19 > 100 µM | A549 > 100 µM
> 100 µM: HCT-15
